Test: relative stability of the polymorphic forms (crystallisation and slurry interconversion experiments)
Type: physicochemical
Conditions: stated as 'believed to be'
Procedure: Thus in general, without wishing to be bound by theory, slower processes will favor the production of Form B. For example, slow addition of solvent, slow cooling rate and/or mixing will tend to favor the production of Form B, whereas fast solvent addition, fast cooling and/or minimal mixing time will favor production of Form A.
A mixture of 3-amino-1-propanesulfonic acid form A (0.7654 g) and form B (0.7880 g) were added to ethanol (5 mL) and water (1.25 mL) in a flask. The slurry was placed in a water bath at 5° C. and stirred for four hours. Solids were collected by vacuum filtration to afford form B.

kinetic preference of the polymorphic form (generated from fast timescale experiments)	thermodynamic stability of the polymorphic form (between about 5 and about 60° C.)	SMILES
kinetically favored form		NCCCS(=O)(=O)O [Form A, 3-amino-1-propanesulfonic acid]
	more thermodynamically stable form	NCCCS(=O)(=O)O [Form B, 3-amino-1-propanesulfonic acid]

Source: US20070049638A1, “Polymorphic forms of 3-amino-1-propanesulfonic acid” (Neurochem (International) Limited, priority 2005, published 2007)
